Read-outs that look alike come from different tables or passages of the source.

What all share (type): cell-based
Assay [1] has as its target T1, cardiac (Nav1.5) sodium channel (Homo sapiens, UniProt Q14524).
T1 construct: expressed in transfected cells
The assay can be described thus: High-throughput patch clamp (QPatch/Qube 384), double voltage-pulse protocol, stable HEK293 Nav1.5. To be noted: for deceleration of fast inactivation onset kinetics compared to control: preconditioning −120 mV. As to the method:
(§1) In another set of studies, we used high-throughput patch clamp techniques using the QPatch (Qube) 384 to screen compounds against both neuronal and cardiac sodium channels. We used a different electrophysiology assay (double voltage-pulse protocol; FIG. 3C) to detect potentiators, inhibitors, and compounds that do both. The protocol assesses these parameters at both rest and partially inactivated holding potentials. For this assay, we used nine compounds from Table 2 that were diluted to 50 μM in DMSO for biophysical assessment of channel gating. The extracellular solution used in these experiments was Ringer solution.
(§2) The nine compounds were screened against the wild type (WT) cardiac (Nav1.5) and neuronal (Nav1.1) sodium channel α-subunits stably expressed in Human Embryonic Kidney (HEK293) along with the β1-subunit.
(§3) Currents were assessed by a test pulse of 0 mV from a holding potential at rest (−120 mV) before preconditioning at the appropriate V1/2 for the sodium channel subtype (V1/2=−90 mV and V1/2=−65 mV for Nav1.5 and Nav1.1, respectively) for 10 s. Parameters were tested following 5 min of incubation with the compounds and normalized to control (vehicle). Peak current, the time constant of inactivation, and the area under the curve (AUC) were measured.
Background: In patch-clamp work, channel activity is measured electrically.

For assay [2], the target named is T2, neuronal (Nav1.1) sodium channel (Homo sapiens, UniProt P35498).
T2 construct: expressed in transfected cells
Nature of the assay: High-throughput patch clamp (QPatch/Qube 384), double voltage-pulse protocol, stable HEK293 Nav1.1. As for the experimental part:
as §1, §2, §3

Assay [3] has as its target T3, WT Nav1.5-α subunits (Homo sapiens, UniProt Q14524).
T3 construct: expressed in transfected cells; host or cells: HEK293 (transient transfection)
Nature of the assay: Whole-cell patch clamp, single voltage-pulse protocol (peak INa, conductance, fast inactivation) in transiently transfected HEK293 cells. The note with it: for Peak INa −20 mV: normalized peak INa, 37° C. As to the method:
(§4) In one set of studies, we used a whole-cell patch clamp technique with single voltage-pulse protocols (FIGS. 3A-B) to characterize compounds ZINC38767171, ZINC39699427, ZINC40014265, ZINC64470729, ZINC64470737 and ZINC64470745. Whole-cell patch clamp was performed in extracellular solution containing (in mM): 140 NaCl, 4 KCl, 2 CaCl2, 1 MgCl2, and 10 HEPES (pH 7.4 adjusted with CsOH). The intracellular pipettes were dipped in dental wax and thermally polished to attain a resistance of 1.0-1.5 MΩ. The intracellular solutions contained (in mM): 130 CsF, 10 NaCl, 10 HEPES, and 10 EGTA titrated to pH 7.4. The six compounds, ZINC38767171, ZINC39699427, ZINC40014265, ZINC64470729, ZINC64470737 and ZINC64470745, chosen for electrophysiology characterization, ordered from MolPort (Easy compound ordering services), were diluted to 10 μM, 50 μM, and 100 μM in extracellular solution for biophysical assessment of channel gating.
(§5) The six compounds were screened against wild type (WT) Nav1.5-α subunits at the optimal physiological temperature of 37° C. Human Embryonic Kidney (HEK293) cells were transfected with WT Nav1.5-α subunits (transient transfections). The α subunits were co-expressed with the β1 subunit and eGFP (enhanced green fluorescence protein) in a 2:1:2 ratio, respectively.
Conductance was measured by a protocol that depolarized the membrane from −100 mV to +80 mV in increments of +5 mV for 19 ms. Prior to the test pulse, channels were allowed to recover from fast inactivation at −130 mV for 197 ms. The tested compounds had no effect on the conductance midpoint (FIGS. 6A-F).
At voltages greater than −50 mV, the fast inactivation T values were calculated from the mono-exponential fit to the decay of sodium current.

Assay [4] deals with T3, WT Nav1.5-α subunits. The assay can be described thus: Whole-cell patch clamp, use-dependence (slow inactivation) protocol at 6 Hz in transiently transfected HEK293 cells. As for the experimental part: as §4, §5
Slow inactivation (SI) was indirectly determined by measuring use-dependence, which is a physiologically-relevant protocol. The protocol includes a series of 500 110 ms depolarizing pulses to 0 mV followed by a 55 ms-90 mV recovery pulse at a frequency 6 Hz. With repetitive depolarizations, Nav1.5 channels accumulate into slow inactivation.

Setting [5] is: HEK293, holding potential −120 mV, read-out: Normalized inhibition of peak sodium current.
Setting [6] is: 50 μM, holding potential −120 mV.

T3 sequence (Q14524 whole entry): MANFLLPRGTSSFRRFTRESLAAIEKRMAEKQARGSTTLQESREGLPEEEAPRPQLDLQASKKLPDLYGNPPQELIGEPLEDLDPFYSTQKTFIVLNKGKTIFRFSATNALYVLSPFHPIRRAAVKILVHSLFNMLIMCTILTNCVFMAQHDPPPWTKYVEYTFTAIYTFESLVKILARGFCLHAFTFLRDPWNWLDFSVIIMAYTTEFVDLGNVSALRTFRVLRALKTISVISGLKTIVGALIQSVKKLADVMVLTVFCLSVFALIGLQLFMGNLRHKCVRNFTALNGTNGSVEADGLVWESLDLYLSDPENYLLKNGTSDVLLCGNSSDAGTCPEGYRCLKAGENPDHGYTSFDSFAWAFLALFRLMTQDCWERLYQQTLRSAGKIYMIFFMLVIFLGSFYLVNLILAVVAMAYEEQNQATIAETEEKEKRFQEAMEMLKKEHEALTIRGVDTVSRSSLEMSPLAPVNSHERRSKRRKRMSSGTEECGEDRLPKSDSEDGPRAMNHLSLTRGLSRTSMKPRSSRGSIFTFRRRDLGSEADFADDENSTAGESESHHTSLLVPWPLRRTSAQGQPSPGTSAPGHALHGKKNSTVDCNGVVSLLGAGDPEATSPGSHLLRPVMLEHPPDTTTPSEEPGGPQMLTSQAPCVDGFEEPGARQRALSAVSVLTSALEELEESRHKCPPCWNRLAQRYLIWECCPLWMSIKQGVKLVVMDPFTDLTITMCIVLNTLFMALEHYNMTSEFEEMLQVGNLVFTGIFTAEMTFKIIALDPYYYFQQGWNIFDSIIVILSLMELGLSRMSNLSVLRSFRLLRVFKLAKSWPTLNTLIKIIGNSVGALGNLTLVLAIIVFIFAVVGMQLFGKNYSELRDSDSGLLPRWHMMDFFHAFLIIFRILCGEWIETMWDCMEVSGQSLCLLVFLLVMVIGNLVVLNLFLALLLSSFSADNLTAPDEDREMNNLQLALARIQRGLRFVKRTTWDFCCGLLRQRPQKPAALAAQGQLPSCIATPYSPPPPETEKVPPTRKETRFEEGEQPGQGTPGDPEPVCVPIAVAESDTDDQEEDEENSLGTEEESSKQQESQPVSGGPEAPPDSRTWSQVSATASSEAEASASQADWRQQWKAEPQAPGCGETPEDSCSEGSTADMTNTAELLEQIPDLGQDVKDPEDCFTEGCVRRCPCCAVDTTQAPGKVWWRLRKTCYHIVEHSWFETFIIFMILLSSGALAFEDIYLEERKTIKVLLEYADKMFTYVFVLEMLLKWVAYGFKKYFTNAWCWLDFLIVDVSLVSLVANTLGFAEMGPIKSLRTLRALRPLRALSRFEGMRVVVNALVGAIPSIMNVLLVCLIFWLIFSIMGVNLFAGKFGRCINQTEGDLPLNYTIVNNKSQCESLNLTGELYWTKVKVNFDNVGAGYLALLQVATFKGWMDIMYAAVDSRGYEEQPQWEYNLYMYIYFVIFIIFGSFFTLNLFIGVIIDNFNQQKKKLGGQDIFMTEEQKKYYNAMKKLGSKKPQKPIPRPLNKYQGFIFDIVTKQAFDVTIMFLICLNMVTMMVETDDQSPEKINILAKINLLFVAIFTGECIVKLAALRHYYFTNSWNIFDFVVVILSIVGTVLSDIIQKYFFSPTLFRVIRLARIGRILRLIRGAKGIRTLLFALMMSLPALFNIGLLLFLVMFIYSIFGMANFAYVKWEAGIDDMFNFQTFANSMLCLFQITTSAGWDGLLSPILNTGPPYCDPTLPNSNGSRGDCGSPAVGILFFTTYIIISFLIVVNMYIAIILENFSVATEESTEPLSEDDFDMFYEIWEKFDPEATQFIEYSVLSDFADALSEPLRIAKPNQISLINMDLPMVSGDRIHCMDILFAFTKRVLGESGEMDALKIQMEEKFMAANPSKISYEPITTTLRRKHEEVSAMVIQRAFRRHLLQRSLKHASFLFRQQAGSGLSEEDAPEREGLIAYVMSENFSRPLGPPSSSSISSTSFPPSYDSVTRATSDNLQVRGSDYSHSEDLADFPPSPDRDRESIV
T1 sequence (Q14524 whole entry): as above

For orientation: inhibition means the drop in the measured response relative to a control, in per cent. As for `Cc1nc(-n2cccc2)sc1C(=O)N=c1[nH]c2ccccc2[nH]1` [ZINC12323863, N-(1H-benzimidazol-2-yl)-4-methyl-2-pyrrol-1-yl-thiazole-5-carboxamide], the “deceleration of fast inactivation onset kinetics compared to control” value in assay [1] (50 μM) is reported as 1.5 fold. Also, the inhibition at 50 µM in assay [1] (setting [5]) was about 32%; in assay [1] (HEK293, −90 mV for 10 s, read-out: Normalized inhibition of peak sodium current after 10 s pulse to mid-voltage potential), about 80%; in assay [2] (setting [5]), about 32%; in assay [2] (HEK293, −65 mV for 10 s, read-out: Normalized inhibition of peak sodium current after 10 s pulse to mid-voltage potential), about 80%. For the same molecule, the “effect on tau of inactivation from holding potential −120 mV” value in assay [2] (50 μM) is reported as “accelerates inactivation”. The “normalized area under curve (AUC) ratio of activated sodium current” value in assay [2] (setting [6]) is “substantially reduces”.

What is called IC50 is the concentration needed to halve the response being measured. Regarding `CN(C)[C@@H](CNC(=O)c1ccc2c(c1)=NC(=O)C(=O)N=2)c1ccco1` [ZINC40014265, N-[(2S)-2-(dimethylamino)-2-(2-furyl)ethyl]-2,3-dioxo-quinoxaline-6-carboxamide], in assay [1] (setting [6]), the “effect on peak INa” value is reported as “did not inhibit peak sodium current” and the “normalized area under curve (AUC) ratio of activated sodium current” value is “slightly increased”. Moreover, in assay [1] (50 μM), the “deceleration of fast inactivation onset kinetics compared to control” value was 1.5 fold. For the same molecule, at WT Nav1.5-α subunits [3] (10 μM), the “% Block −20 mV” value is reported as −20.00%, the “fast inactivation onset time constant FI +10 mV” value is on record as 0.23 ± 0.02 ms, the “fast inactivation onset time constant FI −10 mV” value turned out to be 0.33 ± 0.03 ms and the “fast inactivation onset time constant FI −30 mV” value came to 0.63 ± 0.07 ms. Besides, at WT Nav1.5-α subunits [3] (10 μM), the “fast inactivation onset time constant FI −50 mV” value stood at 2.98 ± 0.84 ms and the “Peak INa −20 mV” value is listed as −0.80 ± 0.06. Further, on WT Nav1.5-α subunits [3] (50 μM), the “% Block −20 mV” value is −37.00%, the “fast inactivation onset time constant FI +10 mV” value is listed as 0.25 ± 0.03 ms, the “fast inactivation onset time constant FI −10 mV” value amounted to 0.37 ± 0.05 ms and the “fast inactivation onset time constant FI −30 mV” value is reported as 0.69 ± 0.11 ms. For the same molecule, at WT Nav1.5-α subunits [3] (50 μM), the “fast inactivation onset time constant FI −50 mV” value is recorded as 2.18 ± 0.70 ms and the “Peak INa −20 mV” value is listed as −0.63 ± 0.06. Also, at WT Nav1.5-α subunits [3] (100 μM), the “% Block −20 mV” value is recorded as −41.00%, the “fast inactivation onset time constant FI +10 mV” value is recorded as 0.26 ± 0.07 ms, the “fast inactivation onset time constant FI −10 mV” value is on record as 0.37 ± 0.09 ms and the “fast inactivation onset time constant FI −30 mV” value came out at 0.69 ± 0.17 ms. At WT Nav1.5-α subunits [3] (100 μM), the “fast inactivation onset time constant FI −50 mV” value was 2.17 ± 0.73 ms and the “Peak INa −20 mV” value is −0.59 ± 0.06. In addition, the “Peak INa Slope” value on WT Nav1.5-α subunits [3] (Hill curve slope) turned out to be 1.064. In addition, the IC50 against WT Nav1.5-α subunits [3] (Hill curve, single voltage-pulse protocol) is 12.6 µM. In addition, on WT Nav1.5-α subunits [4] (Hill curve slope), the “UDI Block Slope” value stood at 0.511. Besides, the IC50 on WT Nav1.5-α subunits [4] (Hill curve, use-dependence at 6 Hz, read-out: UDI Block IC50) is 269 µM.
